Source: the supplement of paper PMC10307832

Assays:
Assay in all cases: relative viability (nuclei count vs DMSO), 5 days (fraction); higher = more cells survive
[1] = compound: Cn1cc(-c2cnn3c(N)c(Br)c([C@@H]4CCCNC4)nc23)cn1 + Cc1nc(Nc2ncc(C(=O)Nc3c(C)cccc3Cl)s2)cc(N2CCN(CCO)CC2)n1 [Dasatinib] (partner 0.075 µM)
In short: (§1)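 Lung cancer cell lines in 1536-well plates got either a single drug or a fixed anchor-drug dose together with five library-drug doses (not always all listed) in √10 steps, by pin tool, on the day after seeding. Nuclei were counted after 5 days, and relative viability is the treated-to-vehicle ratio of nuclei counts. Values are medians of duplicate plates.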

[2] = compound: Cn1cc(-c2cnn3c(N)c(Br)c([C@@H]4CCCNC4)nc23)cn1 + COc1cc2c(Oc3ccc(NC(=O)C4(C(=O)Nc5ccc(F)cc5)CC4)cc3F)ccnc2cc1OCCCN1CCOCC1 [Foretinib] (partner 0.25 µM)
In short: as §1

[3] = compound: Cn1cc(-c2cnn3c(N)c(Br)c([C@@H]4CCCNC4)nc23)cn1 + Nc1ncn([C@H]2C[C@H](O)[C@@H](CO)O2)c(=O)n1 [Decitabine] (partner 2 µM)
In short: as §1

[4] = compound: Cn1cc(-c2cnn3c(N)c(Br)c([C@@H]4CCCNC4)nc23)cn1 + CCNC(=O)c1noc(-c2cc(C(C)C)c(O)cc2O)c1-c1ccc(CN2CCOCC2)cc1 [Luminespib] (partner 0.01 µM)
In short: as §1

| Cell Line | relative viability ([1]; first compound 0.05 µM) | relative viability ([1]; first compound 0.1581 µM) | relative viability ([1]; first compound 0.5 µM) | relative viability ([1]; first compound 1.581 µM) | relative viability ([1]; first compound 5 µM) | relative viability ([2]; first compound 0.05 µM) | relative viability ([2]; first compound 0.1581 µM) | relative viability ([2]; first compound 0.5 µM) | relative viability ([2]; first compound 1.581 µM) | relative viability ([2]; first compound 5 µM) | relative viability ([3]; first compound 0.05 µM) | relative viability ([3]; first compound 0.1581 µM) | relative viability ([3]; first compound 0.5 µM) | relative viability ([3]; first compound 1.581 µM) | relative viability ([3]; first compound 5 µM) | relative viability ([4]; first compound 0.05 µM) | relative viability ([4]; first compound 0.1581 µM) | relative viability ([4]; first compound 0.5 µM) | relative viability ([4]; first compound 1.581 µM) | relative viability ([4]; first compound 5 µM) |
| --- | --- | --- | --- | --- | --- | --- | --- | --- | --- | --- | --- | --- | --- | --- | --- | --- | --- | --- | --- | --- |
| HCC-366 | 0.644 | 0.562 | 0.628 | 0.467 | 0.22 | 0.967 | 0.887 | 0.93 | 0.855 | 0.865 | 0.307 | 0.338 | 0.334 | 0.347 | 0.247 | – | – | – | – | – |
| HCC-827 | 0.32 | 0.392 | 0.276 | 0.295 | 0.193 | 1.09 | 1.11 | 1.06 | 1.02 | 1.02 | 0.34 | 0.38 | 0.339 | 0.361 | 0.305 | 0.551 | 0.843 | 0.485 | 0.674 | 0.332 |
| HOP-62 | 0.66 | 0.702 | 0.568 | 0.589 | 0.316 | 1.17 | 1.16 | 1.06 | 1 | 0.985 | 0.252 | 0.2 | 0.191 | 0.239 | 0.269 | 0.872 | 0.915 | 0.933 | 0.829 | 0.739 |
| IA-LM | – | – | – | – | – | 1.19 | 1.23 | 1.06 | 0.861 | 0.54 | – | – | – | – | – | – | – | – | – | – |
| LC-2-ad | 0.486 | 0.544 | 0.504 | 0.327 | 0.458 | 0.878 | 0.999 | 1.09 | 0.938 | 0.908 | 0.856 | 0.811 | 0.856 | 0.781 | 0.908 | 1.01 | 1.11 | 1.26 | 1.03 | 1.08 |
| LCLC-97TM1 | 0.838 | 0.96 | 0.833 | 0.82 | 0.853 | 0.862 | 1 | 0.93 | 0.909 | 0.956 | 0.22 | 0.297 | 0.222 | 0.278 | 0.295 | 0.874 | 0.844 | 0.743 | 0.654 | 0.777 |
| LCLC-103H | 0.511 | 0.449 | 0.412 | 0.425 | 0.289 | 0.72 | 0.848 | 0.746 | 0.674 | 0.657 | 0.745 | 0.73 | 0.809 | 0.695 | 0.816 | 1.05 | 1.02 | 0.895 | 0.699 | 0.816 |
| LK-2 | 0.228 | 0.296 | 0.26 | – | 0.228 | 1.18 | 1.27 | 0.887 | – | 0.901 | 0.323 | 0.337 | 0.254 | 0.272 | 0.23 | 0.213 | 0.206 | 0.182 | – | 0.169 |
| LOU-NH91 | 0.561 | 0.506 | 0.514 | 0.519 | 0.48 | 0.928 | 0.879 | 0.91 | 0.926 | 0.781 | 0.82 | 0.81 | 0.796 | 0.801 | 0.729 | 0.321 | 0.368 | 0.285 | 0.667 | 0.307 |
| LU99A | 0.397 | 0.51 | 0.485 | 0.405 | 0.244 | 0.805 | 0.768 | 0.821 | 0.706 | 0.716 | 0.912 | 0.92 | 0.875 | 0.822 | 1.01 | 0.31 | 0.202 | 0.248 | 0.162 | 0.223 |
| LXF-289 | 0.216 | 0.209 | 0.181 | 0.221 | 0.209 | 0.996 | 1.02 | 1 | 0.94 | 1.03 | 0.368 | 0.41 | 0.401 | 0.382 | 0.485 | 0.729 | 0.803 | 0.645 | 0.648 | 0.55 |
| NCI-H23 | 0.851 | 0.999 | 0.687 | 0.585 | 0.18 | 1.02 | 0.987 | 0.907 | 0.615 | 0.53 | 0.295 | 0.278 | 0.362 | 0.267 | 0.269 | 0.22 | 0.205 | 0.187 | 0.215 | 0.201 |
| NCI-H322M | 0.268 | 0.279 | 0.268 | 0.231 | 0.245 | 0.91 | 0.62 | 0.854 | 0.563 | 0.297 | 0.617 | 0.706 | 0.65 | 0.635 | 0.44 | 0.71 | 0.33 | 0.426 | 0.376 | 0.279 |
| NCI-H358 | 0.131 | 0.155 | 0.156 | 0.167 | 0.148 | 0.685 | 0.768 | 0.654 | 0.59 | 0.628 | 0.206 | 0.235 | 0.232 | 0.217 | 0.185 | 0.546 | 0.281 | 0.437 | 0.261 | 0.152 |
| NCI-H522 | 0.785 | 0.849 | 0.551 | 0.828 | 0.831 | – | – | – | – | – | 0.675 | 0.619 | 0.664 | 0.669 | 0.642 | 1.23 | 1.26 | 1.17 | 1 | 0.87 |
| NCI-H1299 | – | – | – | – | – | 1.08 | 1.14 | 1.12 | 0.988 | 0.833 | – | – | – | – | – | – | – | – | – | – |
| NCI-H1563 | 0.418 | 0.451 | 0.503 | 0.436 | 0.412 | 0.939 | 1.02 | 0.841 | 0.921 | 0.875 | – | – | – | – | – | 0.62 | 0.578 | 0.51 | 0.55 | 0.37 |
| NCI-H1648 | – | – | – | – | – | – | – | – | – | – | 0.383 | 0.483 | 0.487 | 0.467 | 0.504 | – | – | – | – | – |
| NCI-H1703 | – | – | – | – | – | 0.334 | 0.288 | 0.337 | 0.196 | 0.178 | – | – | – | – | – | – | – | – | – | – |
| NCI-H1792 | – | 0.852 | 0.624 | 0.933 | 0.425 | – | – | – | – | – | 0.542 | 0.627 | 0.587 | – | 0.516 | 0.488 | 0.616 | 0.439 | 0.79 | 0.317 |
| NCI-H2228 | 0.572 | 0.66 | 0.459 | 0.294 | 0.241 | 0.747 | 0.942 | 0.671 | 0.738 | 0.433 | – | – | – | – | – | 0.138 | 0.132 | 0.212 | 0.124 | 0.112 |
